From patent US9550739B2, “Molecules having certain pesticidal utilities, and intermediates, compositions, and processes related thereto” (priority 2014, dated 2017) come the findings set out here.

Holding throughout (assay type): in vivo
The test system of data set [1] is Beet Armyworm (Spodoptera exigua, LAPHEG) ("BAW"). Briefly: Bioassays on Beet Armyworm (BAW), 128-well diet tray assay. The settings on record: second instar BAW larvae, 50 μg/cm^2 on artificial diet, five to seven days, 25° C.; for mortality at 50 µg/cm2: Spodoptera exigua, 168 h, read-out: BAW % Control (or Mortality) rating. Here is the method:
(§1) Certain molecules disclosed in this document were tested against BAW and CEW using procedures described in the following examples. In the reporting of the results, the “BAW & CL Rating Table” was used (See Table Section).
Bioassays on BAW were conducted using a 128-well diet tray assay. one to five second instar BAW larvae were placed in each well (3 mL) of the diet tray that had been previously filled with 1 mL of artificial diet to which 50 μg/cm^2 of the test compound (dissolved in 50 μL of 90:10 acetone-water mixture) had been applied (to each of eight wells) and then allowed to dry. Trays were covered with a clear self-adhesive cover and held at 25° C., 14:10 light-dark for five to seven days. Percent mortality was recorded for the larvae in each well; activity in the eight wells was then averaged. The results are indicated in the table entitled “Table ABC: Biological Results” (See Table Section).

Data set [2] relates to Cabbage Looper (Trichoplusia ni, TRIPNI) ("CL"). The experiment in a line: Bioassays on Cabbage Looper (CL), 128-well diet tray assay. The settings on record: for mortality at 50 µg/cm2: Trichoplusia ni, 168 h, read-out: CL % Control (or Mortality) rating. On the procedure: as §1
Bioassays on CL were conducted using a 128-well diet tray assay. one to five second instar CL larvae were placed in each well (3 mL) of the diet tray that had been previously filled with 1 mL of artificial diet to which 50 μg/cm^2 of the test compound (dissolved in 50 μL of 90:10 acetone-water mixture) had been applied (to each of eight wells) and then allowed to dry. Trays were covered with a clear self-adhesive cover and held at 25° C., 14:10 light-dark for five to seven days. Percent mortality was recorded for the larvae in each well; activity in the eight wells was then averaged. The results are indicated in the table entitled “Table ABC: Biological Results” (See Table Section).

The test system of data set [3] is Yellow Fever Mosquito (Aedes aegypti, AEDSAE) ("YFM"). The settings on record: about 1 day-old larvae, 4000 ppm master solution diluted, 3 days, room temperature. On the procedure: Certain molecules disclosed in this document were tested against YFM using procedures described in the following paragraph. In the reporting of the results, the “YFM Rating Table” was used (See Table Section).
Master plates containing 400 μg of a molecule dissolved in 100 μL of dimethyl sulfoxide (DMSO) (equivalent to a 4000 ppm solution) are used. A master plate of assembled molecules contains 15 μL per well. To this plate, 135 μL of a 90:10 water:acetone mixture is added to each well. A robot (Biomek® NXP Laboratory Automation Workstation) is programmed to dispense 15 μL aspirations from the master plate into an empty 96-well shallow plate (“daughter” plate). There are 6 reps (“daughter” plates) created per master. The created daughter plates are then immediately infested with YFM larvae.
The day before plates are to be treated, mosquito eggs are placed in Millipore water containing liver powder to begin hatching (4 g. into 400 mL). After the daughter plates are created using the robot, they are infested with 220 μL of the liver powder/larval mosquito mixture (about 1 day-old larvae). After plates are infested with mosquito larvae, a non-evaporative lid is used to cover the plate to reduce drying. Plates are held at room temperature for 3 days prior to grading. After 3 days, each well is observed and scored based on mortality.

As usually defined, the mortality is the percentage killed.

Turning to “6-Methoxy-N-(4-(1-(4-(trifluoromethoxy)phenyl)-1H-1,2,4-triazol-3-yl)phenethyl)-[1,1′-biphenyl]-3-carboxamide [F56]”, the “BAW % Control (or Mortality) rating” value in data set [1] was “A (50-100)”. The “CL % Control (or Mortality) rating” value in data set [2] (second instar CL larvae, 50 μg/cm^2 on artificial diet, five to seven days, 25° C.) is on record as “A (50-100)”. The “YFM % Control (or Mortality) rating” value in data set [3] is given as “A (80-100)”.

Consider `O=C(Nc1ccc(-c2ncn(-c3ccc(OC(F)(F)F)cc3)n2)cc1)c1cccc(-c2ccccc2OC(F)(F)F)c1` [F1, 2′-(Trifluoromethoxy)-N-(4-(1-(4-(trifluoromethoxy)phenyl)-1H-1,2,4-triazol-3-yl)phenyl)-[1,1′-biphenyl]-3-carboxamide], for which the mortality at 50 µg/cm2 in data set [1] is 0%; in data set [2] it was 50 to 100%. Also, the “YFM % Control (or Mortality) rating” value in data set [3] is reported as “D (No activity noticed in this bioassay)”.

`Cc1ccc(-c2cccc(C(=O)Nc3ccc(-c4ncn(-c5ccc(OC(F)(F)F)cc5)n4)cc3)n2)c(C)c1` [F2, 6-(2,4-Dimethylphenyl)-N-(4-(1-(4-(trifluoromethoxy)phenyl)-1H-1,2,4-triazol-3-yl)phenyl)picolinamide]: the mortality at 50 µg/cm2 in data set [1] was 0 to 50%; in data set [2], 0%. In addition, in data set [3], the “YFM % Control (or Mortality) rating” value is “D (No activity noticed in this bioassay)”.

With `O=C(Nc1ccc(-c2ncn(-c3ccc(OC(F)(F)F)cc3)n2)cc1)c1cccc(-c2ccccc2OCc2ccccc2)c1` [F3, 2′-(Benzyloxy)-N-(4-(1-(4-(trifluoromethoxy)phenyl)-1H-1,2,4-triazol-3-yl)phenyl)-[1,1′-biphenyl]-3-carboxamide], the mortality at 50 µg/cm2 in data set [1] and in data set [2] was 0% in each case. Further, the “YFM % Control (or Mortality) rating” value in data set [3] is given as “D (No activity noticed in this bioassay)”.

Turning to `COc1ccccc1-c1cc(C(=O)Nc2ccc(-c3ncn(-c4ccc(OC(C)C)cc4)n3)cc2)ccc1F` [F4, 6-Fluoro-N-(4-(1-(4-isopropoxyphenyl)-1H-1,2,4-triazol-3-yl)phenyl)-2′-methoxy-[1,1′-biphenyl]-3-carboxamide], the mortality at 50 µg/cm2 in data set [1] and in data set [2] was 50 to 100% each time. Besides, in data set [3], the “YFM % Control (or Mortality) rating” value is “B (More than 0-Less than 80)”.

For `COc1ccccc1-c1cccc(C(=O)Nc2ccc(-c3ncn(-c4ccc(OC(C)C)cc4)n3)cc2)c1` [F5, N-(4-(1-(4-isopropoxyphenyl)-1H-1,2,4-triazol-3-yl)phenyl)-2′-methoxy-[1,1′-biphenyl]-3-carboxamide], the mortality at 50 µg/cm2 in data set [1] and in data set [2] was 50 to 100% each time. For the same molecule, the “YFM % Control (or Mortality) rating” value in data set [3] is given as “B (More than 0-Less than 80)”.

For `O=C(Nc1ccc(-c2ncn(-c3ccc(OC(F)(F)C(F)(F)F)cc3)n2)cc1)c1cc(Cl)cc(-c2ccccc2)c1` [F6, 5-Chloro-N-(4-(1-(4-(perfluoroethoxy)phenyl)-1H-1,2,4-triazol-3-yl)phenyl)-[1,1′-biphenyl]-3-carboxamide], the mortality at 50 µg/cm2 in data set [1] and in data set [2] was 0% each time. Also, the “YFM % Control (or Mortality) rating” value in data set [3] is “D (No activity noticed in this bioassay)”.

For `COc1ccccc1-c1cc(C(=O)Nc2ccc(-c3ncn(-c4ccc(OC(F)(F)C(F)(F)F)cc4)n3)cc2)ccc1F` [F7, 6-Fluoro-2′-methoxy-N-(4-(1-(4-(perfluoroethoxy)phenyl)-1H-1,2,4-triazol-3-yl)phenyl)-[1,1′-biphenyl]-3-carboxamide], the mortality at 50 µg/cm2 in data set [1] and in data set [2] was 50 to 100% each time. Moreover, the “YFM % Control (or Mortality) rating” value in data set [3] was “D (No activity noticed in this bioassay)”.

With `COc1ccccc1-c1cc(C(=O)NCCc2ccc(-c3ncn(-c4ccc(OC(F)(F)F)cc4)n3)cc2)ccc1F` [F54, 6-Fluoro-2′-methoxy-N-(4-(1-(4-(trifluoromethoxy)phenyl)-1H-1,2,4-triazol-3-yl)phenethyl)-[1,1′-biphenyl]-3-carboxamide], the mortality at 50 µg/cm2 in data set [1] and in data set [2] was 50 to 100% throughout.
